Assay results: patent publication US20240059703A1 (AMGEN INC., priority 2021, published 2024)
Read-outs that look alike come from different tables or passages of the source.

Experiments:
[1] = tested on: MIA PaCa-2 (human pancreatic carcinoma) cells; test: Cell Viability Assay (CellTiter-Glo), MIA PaCa-2; format: cell-based
Protocol: Serially-diluted compound or DMSO was added to the cells, and plates were incubated at 37° C., 5% CO2 for 72 h. Cell viability was measured using a CellTiter-Glo® Luminescent Cell Viability Assay kit (Promega) according to the manufacturer's protocol. The luminescence signal of treated samples was normalized to DMSO control, and data were analyzed using a 4-parameter logistic model to calculate IC50 values.

[2] = tested on: A549 (human lung carcinoma) cells; test: Cell Viability Assay (CellTiter-Glo), A549; format: cell-based
Procedure, shortened: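 Cells grown in RPMI 1640 with 10% FBS were seeded at 1.67E+04 cells/mL and left overnight at 37° C., 5% CO2. They were then exposed to serially diluted compound for 72 h, after which CellTiter-Glo luminescence was read, normalized to DMSO, and fitted to a 4-parameter logistic model for IC50.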

KRAS G12C = KRAS G12C (Homo sapiens (Human), UniProt P01116, C118A/G12C); test: 2 h coupled exchange assay; format: biochemical
KRAS G12C, sequence (P01116 other isoform, or with tags, fused parts or gaps G12C/C118A): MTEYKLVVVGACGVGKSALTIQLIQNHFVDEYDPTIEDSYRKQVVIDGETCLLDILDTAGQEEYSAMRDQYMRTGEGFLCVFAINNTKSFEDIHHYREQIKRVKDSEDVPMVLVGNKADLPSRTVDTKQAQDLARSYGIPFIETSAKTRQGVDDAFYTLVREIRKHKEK
Protocol: The term “2 h coupled exchange assay” or “20 h coupled exchange assay” as used herein refers to the assay described in the Section entitled “BIOLOGICAL EVALUATION.”

[3] = Avg 2 h Coupled exchange IC50, 2 h compound pre-incubation, SOS-mediated nucleotide exchange
[4] = Avg 2 h Coupled exchange IC50, 2 h compound pre-incubation

SMILES	IC50 ([1]; Homo sapiens, MIA PaCa-2, 72 h) [nM]	IC50 ([2]; Homo sapiens, A549, 72 h) [nM]	IC50 (KRAS G12C; [3]) [nM]	IC50 (KRAS G12C; [4]) [nM]	IC50 ([1]; 72 h) [nM]	IC50 ([2]; 72 h) [nM]	IC50 (KRAS G12C; read-out: Avg 2 h Coupled exchange IC50, 2 h compound pre-incubation) [nM]
C=CC(=O)N1CC2(CCN(c3nc4c(c(-c5cccc6c(F)c(O)ccc56)c3C)COC(C)(C)C4)C2)C1 [Example 12-45, 1-(6-(4-(5-fluoro-6-hydroxy-1-naphthalenyl)-3,7,7-trimethyl-7,8-dihydro-5H-pyrano[4,3-b]pyridin-2-yl)-2,6-diazaspiro[3.4]octan-2-yl)-2-propen-1-one]	> 5000	> 5000	760	–	–	–	–
C=CC(=O)N1CC2(CCN(c3nc4c(c(-c5ccc(F)c6sc(N)nc56)c3C)CCC(C)(C)C4)C2)C1 (single isomer, unassigned) [Example 2-17]	155	> 5000	64	–	–	–	–
C=CC(=O)N1CC2(CCN(c3nc4cc(-c5scnc5CO)cnc4c(-c4ccccc4F)c3C#N)C2)C1 [Example 19-10, 4-(2-fluorophenyl)-7-(4-(hydroxymethyl)-1,3-thiazol-5-yl)-2-(2-(2-propenoyl)-2,6-diazaspiro[3.4]octan-6-yl)-1,5-naphthyridine-3-carbonitrile]	1130	15300	–	113	–	–	–
C=CC(=O)N1CC2(CCN(c3nc(-c4ccccc4F)c4c(n3)N([C@H](CC(=O)NC)CC(C)C)CC4)C2)C1 (single isomer, unassigned) [Example 9]	1690	> 5000	691	–	–	–	–
C=CC(=O)N1CC2(CCN(c3cc4c(ncn4C)c(-c4c(C)ccc5[nH]ncc45)c3C#N)C2)C1 [Example 7, 1-methyl-4-(5-methyl-1H-indazol-4-yl)-6-(2-(2-propenoyl)-2,6-diazaspiro[3.4]octan-6-yl)-1H-benzimidazole-5-carbonitrile]	3420	> 5000	879	–	–	–	–
C=CC(=O)N1CC2(CCN(c3nc4c(c(-c5ccccc5C)c3C#N)CC[C@@H](c3scnc3C)C4)C2)C1 (single isomer, unassigned) [Example 23-5]	–	–	–	8	107	3800	–
C=CC(=O)N1CC2(CCN(c3nc4c(c(-c5c(C)ccc6cnn(C)c56)c3C)COC(C)(C)C4)C2)C1 (single isomer, unassigned) [Example 14-99, (P)-1-(6-(4-(1,6-dimethyl-1H-indazol-7-yl)-3,7,7-trimethyl-7,8-dihydro-5H-pyrano[4,3-b]pyridin-2-yl)-2,6-diazaspiro[3.4]octan-2-yl)-2-propen-1-one]	80	> 5000	–	71	–	–	–
C=CC(=O)N1CC2(CCN(c3nc4c(c(-c5c(C(F)(F)F)ccc6[nH]ncc56)c3C#N)C[C@H]3C[C@@H]4C3(C)C)C2)C1 [Example 2-31, (1R,9R)-10,10-dimethyl-4-(2-(2-propenoyl)-2,6-diazaspiro[3.4]octan-6-yl)-6-(5-(trifluoromethyl)-1H-indazol-4-yl)-3-azatricyclo[7.1.1.0^2,7]undeca-2,4,6-triene-5-carbonitrile]	54	2780	53	–	–	–	–
C=CC(=O)N1CC2(CCN(c3nc4c(c(-c5ccccc5F)c3C#N)CCC(c3scnc3COC)=C4)C2)C1 [Example 23-52, 4-(2-fluorophenyl)-7-(4-(methoxymethyl)-1,3-thiazol-5-yl)-2-(2-(2-propenoyl)-2,6-diazaspiro[3.4]octan-6-yl)-5,6-dihydro-3-quinolinecarbonitrile]	779	3410	–	109	–	–	–
C=CC(=O)N1CC2(CCN(c3nc4c(c(-c5c(N)cccc5F)c3C#N)COC(C)(C)C4)C2)C1 [Example 13-157, 4-(2-amino-6-fluorophenyl)-7,7-dimethyl-2-(2-(2-propenoyl)-2,6-diazaspiro[3.4]octan-6-yl)-7,8-dihydro-5H-pyrano[4,3-b]pyridine-3-carbonitrile]	357	16200	555	–	–	–	–
C=CC(=O)N1CC2(CCN(c3nc4c(c(-c5cc(O)ccc5C)c3C#N)C[C@H]3C[C@@H]4C3(C)C)C2)C1 [Example 2-67, (1R,9R)-6-(5-hydroxy-2-methylphenyl)-10,10-dimethyl-4-(2-(2-propenoyl)-2,6-diazaspiro[3.4]octan-6-yl)-3-azatricyclo[7.1.1.0^2,7]undeca-2,4,6-triene-5-carbonitrile]	381	> 5000	38	–	–	–	–
C=CC(=O)N1CC2(CCN(c3nc4c(c(-c5c(C)ccc6cnn(C)c56)c3C)CCN(C3(C)COC3)C4)C2)C1 (atropisomer, axis not shown; (M)) [Example 36-2, (M)-1-(6-(4-(1,6-dimethyl-H-indazol-7-yl)-3-methyl-7-(3-methyl-3-oxetanyl)-5,6,7,8-tetrahydro-1,7-naphthyridin-2-yl)-2,6-diazaspiro[3.4]octan-2-yl)-2-propen-1-one]	–	–	–	–	28	25000	87
C=CC(=O)N1CC2(CCN(c3nc4c(c(-c5cccc6cc(O)ccc56)c3C)CCN(CC(O)C(F)(F)F)C4)C2)C1 [Example 18-18, 1-(6-(4-(6-hydroxy-1-naphthalenyl)-3-methyl-7-((2R)-3,3,3-trifluoro-2-hydroxypropyl)-5,6,7,8-tetrahydro-1,7-naphthyridin-2-yl)-2,6-diazaspiro[3.4]octan-2-yl)-2-propen-1one|1-(6-(4-(6-hydroxy-1-naphthalenyl)-3-methyl-7-((2S)-3,3,3-trifluoro-2-hydroxypropyl)-5,6,7,8-tetrahydro-1,7-naphthyridin-2-yl)-2,6-diazaspiro[3.4]octan-2-yl)-2-propen-1-one]	402	> 5000	–	106	–	–	–
C=CC(=O)N1CC2(CCN(c3nc4c(c(-c5ccc(F)cc5Cl)c3C#N)CO[C@H](c3scnc3C)C4)C2)C1 [Example 23-28, (7S)-4-(2-chloro-4-fluorophenyl)-7-(4-methyl-1,3-thiazol-5-yl)-2-(2-(2-propenoyl)-2,6-diazaspiro[3.4]octan-6-yl)-7,8-dihydro-5H-pyrano[4,3-b]pyridine-3-carbonitrile]	1400	5680	–	415	–	–	–
C=CC(=O)N1CC2(CCN(c3nc4c(c(-c5cc(O)cc6ccccc56)c3C#N)[C@H]3CC[C@@H]4C3)C2)C1 (single isomer, unassigned) [Example 2-40]	–	–	46	–	529	2000	–
C=CC(=O)N1CC2(CCN(c3nc4cc(-c5scnc5C)c(C)cc4c(-c4ccccc4Cl)c3C#N)C2)C1 [Example 20-10, 2-(2-acryloyl-2,6-diazaspiro[3.4]octan-6-yl)-4-(2-chlorophenyl)-6-methyl-7-(4-methylthiazol-5-yl)quinoline-3-carbonitrile]	5380	6780	–	890	–	–	–
C=CC(=O)N1CC2(CCN(c3nc4c(c(-c5c(C)ccc6[nH]ncc56)c3C#N)COC3(CCOCC3)C4)C2)C1 [Example 13-50, 4′-(5-methyl-1H-indazol-4-yl)-2′-(2-(2-propenoyl)-2,6-diazaspiro[3.4]octan-6-yl)-2,3,5,5′,6,8′-hexahydrospiro[pyran-4,7′-pyrano[4,3-b]pyridine]-3′-carbonitrile]	198	> 5000	76	–	–	–	–
C=CC(=O)N1CC2(CCN(c3nc4cc(OC)ccc4c(-c4ccccc4Cl)c3C#N)C2)C1 [Example 20-5, 4-(2-chlorophenyl)-7-methoxy-2-(2-(2-propenoyl)-2,6-diazaspiro[3.4]octan-6-yl)-3-quinolinecarbonitrile]	5510	9110	–	572	–	–	–
